The text below walks through data of US20250179059A1 (The Regents of the University of California, priority 2021, published 2025).

For experiment [1], the target named is T1, human BRD4 bromodomain II (Homo sapiens, UniProt O60885).
T1 construct: human BRD4 bromodomain II [based on Genbank NM_058243, residues 349-460]; host or cells: E. coli
Put plainly: Bromodomain binding assay (AlphaScreen), BRD4 BDII. The gist of the method:
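Read-out is AlphaScreen signal (ex 680 nm, em 520-620 nm) from streptavidin donor beads on a biotinylated acetylated histone H4 (aa 1-21) peptide and nickel acceptor beads on the His6-tagged bromodomain. IC50 values come from curve fits of percentage peptide binding against compound concentration.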
On the technique in general: Alpha assays give light when donor and acceptor beads are brought close together.

Experiment [2] concerns human SKM-1 acute myeloid leukemia cells. Description: SKM-1 antiproliferation cell-based assay (ATPlite). Put shortly:
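Log-phase cells in RPMI 1640/15% FBS were seeded at 34722 cells/mL and exposed for 4 days to nine-concentration DMSO serial dilutions in triplicate. Viability was read as ATP luminescence (ATPlite 1step), and IC50 values came from variable-slope non-linear regression.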
(Cellular ATP, detected with luciferase, serves as a proxy for viable cell number.)

Where [3] appears, read: AlphaScreen assay, Table C2, read-out: BRD4 BDII IC50.
[4] abbreviates: Homo sapiens, SKM-1, 96 h, SKM-1 antiproliferation assay, 4 days, Table C2.
The mark [5] stands for this setting: BRD4 BDII AlphaScreen assay, read-out: BRD4 BD2 IC50.
[6] abbreviates: Homo sapiens, SKM-1, SKM-1 antiproliferation assay.

Like-named read-outs stand apart in the source and are kept apart here. A value given as a limit tells only on which side of the number the result lay.

In the case of `Cn1ncn(-c2ccc(-c3cc(F)cc(-c4ccnc(N5CCNCC5)c4)c3O)cc2Cl)c1=O` [Example 462, 4-(3-chloro-5′-fluoro-2′-hydroxy-3′-(2-(piperazin-1-yl)pyridin-4-yl)-[1,1′-biphenyl]-4-yl)-1-methyl-1H-1,2,4-triazol-5(4H)-one], in experiment [1] (setting [3]), the IC50 (as a rule, the concentration needed to halve the response being measured) was in the range of 1 to 10 nM. For the same compound, the GI50 (commonly the concentration that inhibits growth by half) in experiment [2] (setting [4]) lay in the range of 30 to 300 nM.

Consider `CC(=O)Nc1ncc(-c2cc(F)cc(-c3cccc(N4CCN(C(C)(C)C)CC4)c3)c2O)cn1` [Example 907, N-(5-(3′-(4-(tert-butyl)piperazin-1-yl)-5-fluoro-2-hydroxy-[1,1′-biphenyl]-3-yl)pyrimidin-2-yl)acetamide], for which the IC50 in experiment [1] (setting [5]) was > 100 nM. Also, in experiment [2] (setting [6]), the GI50 was > 3000 nM.

With `Cn1ccn(-c2ccc(-c3cc(F)cc(-c4cccc(-c5ccc(O)cc5)c4)c3O)cc2Cl)c1=O` [Example 857], the IC50 in experiment [1] (setting [5]) was in the range of 10 to 100 nM. The compound also displayed a GI50 in experiment [2] (setting [6]) of 300 to 3000 nM.

In the case of `COc1ncc(-c2cc(F)cc(-c3ccc(-n4ccn(C)c4=O)c(Cl)c3)c2O)cc1N1CC(F)(F)[C@](C)(O)C1` [Example 900], in experiment [1] (setting [5]), the IC50 was in the range of 0.01 to 1 nM. The compound further came in with a GI50 in experiment [2] (setting [6]) of 30 to 300 nM.

On to `O=C1CCCN1c1ccc(-c2cccc(-c3ccnc(N4CC5(CNC5)C4)c3)c2O)cc1Cl` [Example 271, 1-(3′-(2-(2,6-diazaspiro[3.3]heptan-2-yl)pyridin-4-yl)-3-chloro-2′-hydroxy-[1,1′-biphenyl]-4-yl)pyrrolidin-2-one], for which the IC50 in experiment [1] (setting [3]) fell in the range of 10 to 100 nM. The compound further registered a GI50 in experiment [2] (setting [4]) of 300 to 3000 nM.

As for `Cc1cc(-c2cc(-c3cn[nH]c3)nc(N3CCNCC3)c2)c(O)c(-c2ccc(-n3ccn(C)c3=O)c(Cl)c2)c1` [Example 566], in experiment [1] (setting [3]), the IC50 lay in the range of 0.01 to 1 nM. In experiment [2] (setting [4]), this compound displayed a GI50 of 0.3 to 30 nM.

Consider `Cn1ccn(-c2ccc(-c3cc(F)cc(-c4ccnc(N5CCC6(CCO6)C5)c4)c3O)cc2Cl)c1=O` (stereo not shown) [Example 674, 1-(3′-(2-(1-oxa-6-azaspiro[3.4]octan-6-yl)pyridin-4-yl)-3-chloro-5′-fluoro-2′-hydroxy-[1,1′-biphenyl]-4-yl)-3-methyl-1H-imidazol-2(3H)-one], for which the IC50 in experiment [1] (setting [3]) is 0.01 to 1 nM. The GI50 in experiment [2] (setting [4]) lay within 30 to 300 nM.

As to `CC(C)N1CCN(c2cc(-c3cc(F)cc(-c4ccc(-n5ccn(C)c5=O)c(Cl)c4)c3O)cc(=O)n2C)CC1` [Example 717, 4-(3′-chloro-5-fluoro-2-hydroxy-4′-(3-methyl-2-oxo-2,3-dihydro-1H-imidazol-1-yl)-[1,1′-biphenyl]-3-yl)-6-(4-isopropylpiperazin-1-yl)-1-methylpyridin-2(1H)-one], in experiment [1] (setting [3]), the half-maximal inhibitory concentration (IC50) is 0.01 to 1 nM. For the same compound, in experiment [2] (setting [4]), the concentration for 50% growth inhibition (GI50) was 0.3 to 30 nM.

In the case of `CC(C)c1cc(-c2cc(F)cc(-c3cccc(N4CCN(C(C)(C)C)CC4)c3)c2O)cc(Cl)c1-n1ccn(C)c1=O` [Example 934, (R)-1-(3″-(4-(tert-butyl)piperazin-1-yl)-3-chloro-5′-fluoro-2′-hydroxy-5-isopropyl-[1,1′:3′,1″-terphenyl]-4-yl)-3-methyl-1,3-dihydro-2H-imidazol-2-one], the IC50 in experiment [1] (setting [5]) is > 100 nM. For the same compound, in experiment [2] (SKM-1 antiproliferation assay), the GI50 was in the range of 300 to 3000 nM.

For the compound `Cc1cc(-c2ccc(-n3ccn(C)c3=O)c(Cl)c2)c(O)c(-c2cnc(N(C)C)c(N3CCC4(CCN4C(C)C)C3)c2)n1` (stereo not shown) [Example 990, 1-(2-chloro-4-(6′-(dimethylamino)-3-hydroxy-5′-(1-isopropyl-1,6-diazaspiro[3.4]octan-6-yl)-6-methyl-[2,3′-bipyridin]-4-yl)phenyl)-3-methyl-1H-imidazol-2(3H)-one], in experiment [1] (setting [5]), the IC50 was 1 to 10 nM. In experiment [2] (setting [6]), the GI50 lay in the range of 0.3 to 30 nM.

Turning to `CC(C)N1CCCC12CCN(c1cc(-c3cc(F)cc(-c4ccc(-n5ccn(C)c5=O)c(Cl)c4)c3O)cnc1N(C)C)C2` (stereo not shown) [Example 969, 1-(3-chloro-3′-(6-(dimethylamino)-5-(1-isopropyl-1,7-diazaspiro[4.4]nonan-7-yl)pyridin-3-yl)-5′-fluoro-2′-hydroxy-[1,1′-biphenyl]-4-yl)-3-methyl-1H-imidazol-2(3H)-one], in experiment [1] (setting [5]), the IC50 was in the range of 1 to 10 nM. This compound gave a GI50 in experiment [2] (setting [6]) of 30 to 300 nM.

Consider `Cn1ccn(-c2ccc(-c3cc(F)cc(-c4ccnc(N5CCC(N)CC5)c4)c3O)cc2Cl)c1=O` [Example 414, 1-(3′-(2-(4-aminopiperidin-1-yl)pyridin-4-yl)-3-chloro-5′-fluoro-2′-hydroxy-[1,1′-biphenyl]-4-yl)-3-methyl-1H-imidazol-2(3H)-one], for which, in experiment [1] (setting [3]), the IC50 lay within 0.01 to 1 nM. This compound also displayed a GI50 in experiment [2] (setting [4]) of 30 to 300 nM.

Turning to `Cn1ccn(-c2c(Cl)cc(-c3cc(F)cc(-c4ccnc(N5CCNCC5)c4)c3O)cc2C#N)c1=O` [Example 448, 5-chloro-5′-fluoro-2′-hydroxy-4-(3-methyl-2-oxo-2,3-dihydro-1H-imidazol-1-yl)-3′-(2-(piperazin-1-yl)pyridin-4-yl)-[1,1′-biphenyl]-3-carbonitrile], in experiment [1] (setting [3]), the IC50 lay within 10 to 100 nM. The compound also had a GI50 in experiment [2] (setting [4]) of 300 to 3000 nM.

With `Cc1cc(-c2cccc(N3CCN(C(C)(C)C)CC3)c2)c(O)c(-c2ccc(-n3ccn(C)c3=O)c(Cl)c2)n1` [Example 917, 1-(4-(4-(3-(4-(tert-Butyl)piperazin-1-yl)phenyl)-3-hydroxy-6-methylpyridin-2-yl)-2-chlorophenyl)-3-methyl-1H-imidazol-2(3H)-one], in experiment [1] (setting [5]), the half-maximal inhibitory concentration (IC50) lay in the range of 1 to 10 nM. The compound further had a GI50 in experiment [2] (setting [6]) of 30 to 300 nM.

As to `Cn1ccn(-c2ccc(-c3cc(F)cc(-c4cccc(-c5ccc(CO)cc5)c4)c3O)cc2Cl)c1=O` [Example 858], the IC50 in experiment [1] (setting [5]) lay within 10 to 100 nM. This compound had a concentration for 50% growth inhibition (GI50) in experiment [2] (setting [6]) of 300 to 3000 nM.

On to `O=C1NCCCN1c1ccc(-c2cc(F)cc(-c3ccnc(N4CCNCC4)c3)c2O)cc1F` [Example 278, 1-(3,5′-difluoro-2′-hydroxy-3′-(2-(piperazin-1-yl)pyridin-4-yl)-[1,1′-biphenyl]-4-yl)tetrahydropyrimidin-2(1H)-one], for which the IC50 in experiment [1] (setting [3]) was 10 to 100 nM. The GI50 in experiment [2] (setting [4]) was in the range of 300 to 3000 nM.

`COc1ncc(-c2cc(F)cc(-c3ccc(-n4ccn(C)c4=O)c(Cl)c3)c2O)cc1N1CC[C@@](C)(O)C1` [Example 812, (R)-1-(3-chloro-5′-fluoro-2′-hydroxy-3′-(5-(3-hydroxy-3-methylpyrrolidin-1-yl)-6-methoxypyridin-3-yl)-[1,1′-biphenyl]-4-yl)-3-methyl-1H-imidazol-2(3H)-one]: the IC50 in experiment [1] (setting [3]) was 0.01 to 1 nM. In addition, the GI50 in experiment [2] (setting [4]) lay within 0.3 to 30 nM.

For the compound `Cn1ccn(-c2ccc(-c3cc(F)cc(-c4cnc(N)c(N5CCN(C(C)(C)C)CC5)c4)c3O)cc2Cl)c1=O` [Example 914, 1-(3′-(6-amino-5-(4-(tert-butyl)piperazin-1-yl)pyridin-3-yl)-3-chloro-5′-fluoro-2′-hydroxy-[1,1′-biphenyl]-4-yl)-3-methyl-1H-imidazol-2(3H)-one], the half-inhibitory concentration (IC50) in experiment [1] (setting [5]) fell in the range of 1 to 10 nM. In experiment [2] (setting [6]), this compound displayed a GI50 of 0.3 to 30 nM.

Take `Cn1ccn(-c2ccc(-c3cc(F)cc(-c4ccnc(N5C[C@@H](O)[C@H](O)C5)c4)c3O)cc2Cl)c1=O` [Example 726, 1-(3-chloro-3′-(2-((3R,4R)-3,4-dihydroxypyrrolidin-1-yl)pyridin-4-yl)-5′-fluoro-2′-hydroxy-[1,1′-biphenyl]-4-yl)-3-methyl-1H-imidazol-2(3H)-one]: in experiment [1] (setting [3]), the 50% inhibitory concentration (IC50) is 0.01 to 1 nM. This compound yielded a GI50 in experiment [2] (setting [4]) of 0.3 to 30 nM.

Take `CN(C)c1ncc(-c2nccc(-c3ccc(-n4ccn(C)c4=O)c(Cl)c3)c2O)cc1N1CCN(C(C)(C)C)CC1` [Example 988, 1-(4-(5′-(4-(tert-butyl)piperazin-1-yl)-6′-(dimethylamino)-3-hydroxy-[2,3′-bipyridin]-4-yl)-2-chlorophenyl)-3-methyl-1H-imidazol-2(3H)-one]: in experiment [1] (setting [5]), the 50% inhibitory concentration (IC50) fell in the range of 1 to 10 nM. Also, in experiment [2] (setting [6]), the GI50 was in the range of 0.3 to 30 nM.
